Measured values reported in US20240358692A1, “TREATMENT OF SCLERODERMA” (Aisa Pharma, Inc., priority 2023, published 2024).

What was measured:
[1] = system: participants with SSc-RP; test: Frequency of weekly symptomatic RP attacks (patient diary), Phase 2a Part A; type: in vivo, human; conditions: ITT Part A
Excerpt: Percent change from baseline evaluation for frequency of weekly RP attacks were or will be used as the primary efficacy variable. The sponsor-developed participant-informed diary will be used to record data. Frequency of weekly RP attacks is defined as the total number of RP attacks divided by the number of days with available diary data within the last 7 days of each dosing period then multiplied by 7. Total number of RP attacks during the last 7 days of screening period divided by the number of days with available data then multiplied by 7 will be used as baseline for the analysis of all periods. The variable will be calculated as follows: […]
Percent change from baseline evaluation for frequency of weekly RP attacks was and will be the primary efficacy endpoint. Frequency of weekly RP attacks is defined as the total number of RP attacks divided by the number of days with available diary data within the last 7 days of each dosing period then multiplied by 7. Total number of RP attacks during the last 7 days of screening period divided by the number of days with available data then multiplied by 7 will be used as baseline for the analysis of all periods.

[2] = system: participants with SSc-RP; test: SHAQ - Visual Analog Scale - Finger Ulcers; type: in vivo, human; conditions: for SHAQ Visual Analogue Scale - Finger Ulcers, Change from Baseline, Mean (SD) / SHAQ Visual Analogue Scale - Finger Ulcers, Change from Baseline, Median / SHAQ Visual Analogue Scale - Finger Ulcers, In-Clinic Visit (Day 12), Mean (SD) / SHAQ Visual Analogue Scale - Finger Ulcers, In-Clinic Visit (Day 12), Median / SHAQ Visual Analogue Scale - Finger Ulcers, Percent Change from Baseline, Mean (SD) / SHAQ Visual Analogue Scale - Finger Ulcers, Percent Change from Baseline, Median: Day 12; for % improvement in VAS Digital Ulcers: SHAQ, mITT Part A
Excerpt: The standard, validated, patient reported outcome measures tool for SSc patients, the Scleroderma Health Assessment Questionnaire (SHAQ), will be used to assess the participant qualify of life. Details are attached in the Appendix. The participant quality of life will be scored, and a disability index calculated for each questionnaire completed by the patient at Screening and each in-clinic visit. The absolute change in participant quality of life from baseline to the end of each dosing period will be calculated similar to frequency data as before.
The standard, validated, patient reported outcome measures tool for SSc patients, the SHAQ, was collected at the time points specified in the study schedules (FIG. 2 and FIGS. 4A and 4B) to assess the participant's quality of life. The SHAQ included a Raynaud's VAS that will also be reported separately.

[3] = Pooled Cilnidipine (10 or 20 mg), n=3, Excluding Outliers
[4] = Pooled Cilnidipine (10 or 20 mg), n=3, by Baseline RCS, first block (RCS <5.0)
[5] = Pooled Cilnidipine arms, n=3, excluding outliers, first Baseline RCS subgroup, last 7 days of dosing
[6] = cilnidipine 10 mg daily, n=1, excluding outliers, first Baseline RCS subgroup, last 7 days of dosing
[7] = cilnidipine 20 mg daily, n=2, excluding outliers, first Baseline RCS subgroup, last 7 days of dosing
[8] = Any Cilnidipine (N = 17), PP Population, Part A
[9] = Cilnidipine 10 mg (N = 4), PP Population, Part A
[10] = Cilnidipine 20 mg (N = 4), PP Population, Part A
[11] = Pooled Cilnidipine 10 mg and Cilnidipine 10 mg + Tadalafil 5 mg, PP, Part A
[12] = Pooled Cilnidipine 20 mg and Cilnidipine 20 mg + Tadalafil 5 mg, PP, Part A
[13] = Pooled Cilnidipine (N = 8), PP Population, Part A
[14] = cilnidipine 10 mg (combination: + tadalafil 5 mg)
[15] = cilnidipine 20 mg (combination: + tadalafil 5 mg)

COCCOC(=O)C1=C(C)NC(C)=C(C(=O)OC/C=C/c2ccccc2)C1c1cccc([N+](=O)[O-])c1 (centres unmarked) [Cilnidipine]
Weekly Symptomatic RP Attacks Percent Change from Baseline, Median [1, 3]: −33.33% | Weekly Symptomatic RP Attacks, Mean [1, 3]: 10.00 | Weekly Symptomatic RP Attacks, Median [1, 3]: 11.00 | Weekly Symptomatic RP Attacks Change from Baseline, Mean [1, 4]: −5.33 | Weekly Symptomatic RP Attacks Change from Baseline, Median [1, 4]: −7.00 | Weekly Symptomatic RP Attacks Percent Change from Baseline, Mean [1, 4]: −33.60% | Weekly Symptomatic RP Attacks Percent Change from Baseline, Median [1, 4]: −33.33% | Weekly Symptomatic RP Attacks, Mean [1, 4]: 10.00 | Weekly Symptomatic RP Attacks, Median [1, 4]: 11.00 | Weekly Symptomatic RP Attacks Change from Baseline, Mean [1, 5]: −5.33 | Weekly Symptomatic RP Attacks Change from Baseline, Median [1, 5]: −7.00 | Weekly Symptomatic RP Attacks Percent Change from Baseline, Mean [1, 5]: −33.60% | Weekly Symptomatic RP Attacks Percent Change from Baseline, Median [1, 5]: −33.33% | Weekly Symptomatic RP Attacks, Mean [1, 5]: 10.00 | Weekly Symptomatic RP Attacks, Median [1, 5]: 11.00 | Weekly Symptomatic RP Attacks Change from Baseline, Mean [1, 6]: −7.00 | Weekly Symptomatic RP Attacks Change from Baseline, Median [1, 6]: −7.00 | Weekly Symptomatic RP Attacks Percent Change from Baseline, Mean [1, 6]: −33.33% | Weekly Symptomatic RP Attacks Percent Change from Baseline, Median [1, 6]: −33.33% | Weekly Symptomatic RP Attacks, Mean [1, 6]: 14.00 | Weekly Symptomatic RP Attacks, Median [1, 6]: 14.00 | Weekly Symptomatic RP Attacks Change from Baseline, Mean [1, 7]: −4.50 | Weekly Symptomatic RP Attacks Change from Baseline, Median [1, 7]: −4.50 | Weekly Symptomatic RP Attacks Percent Change from Baseline, Mean [1, 7]: −33.73% | Weekly Symptomatic RP Attacks Percent Change from Baseline, Median [1, 7]: −33.73% | Weekly Symptomatic RP Attacks, Mean [1, 7]: 8.00 | Weekly Symptomatic RP Attacks, Median [1, 7]: 8.00 | SHAQ Visual Analogue Scale - Finger Ulcers, Change from Baseline, Mean (SD) [2, 8]: −0.540 (1.0568) | SHAQ Visual Analogue Scale - Finger Ulcers, Change from Baseline, Median [2, 8]: −0.100 | SHAQ Visual Analogue Scale - Finger Ulcers, In-Clinic Visit (Day 12), Mean (SD) [2, 8]: 0.731 (1.4351) | SHAQ Visual Analogue Scale - Finger Ulcers, In-Clinic Visit (Day 12), Median [2, 8]: 0.000 | SHAQ Visual Analogue Scale - Finger Ulcers, Percent Change from Baseline, Mean (SD) [2, 8]: −33.91 (69.617) % | SHAQ Visual Analogue Scale - Finger Ulcers, Percent Change from Baseline, Median [2, 8]: −36.11% | SHAQ Visual Analogue Scale - Finger Ulcers, Change from Baseline, Median [2, 9]: −0.350 | SHAQ Visual Analogue Scale - Finger Ulcers, In-Clinic Visit (Day 12), Median [2, 9]: 0.000 | SHAQ Visual Analogue Scale - Finger Ulcers, In-Clinic Visit (Day 12), Median ([2]; Cilnidipine 10 mg, PP Population Part A, sensitivity analysis): 0.000 | SHAQ Visual Analogue Scale - Finger Ulcers, Change from Baseline, Median [2, 10]: 0.000 | SHAQ Visual Analogue Scale - Finger Ulcers, In-Clinic Visit (Day 12), Median [2, 10]: 0.350 | % improvement in VAS Digital Ulcers ([2]; Cilnidipine 20 mg (n = 3)): 35% | SHAQ Burden of Finger Ulcers, mean % change ([2]; Cilnidipine 20 mg (n = 3), minus = improvement, Table A*): −17% | SHAQ Visual Analogue Scale - Finger Ulcers, In-Clinic Visit (Day 12), Mean ([2]; Pooled Cilnidipine 10 mg and Cilnidipine 10 mg + Tadalafil 5 mg (N = 9), Modified ITT Population - Part A): 0.389 | SHAQ VAS Finger Ulcers, Change from Baseline, Max [2, 11]: 0.00 | SHAQ VAS Finger Ulcers, Change from Baseline, Min [2, 11]: −1.00, | SHAQ VAS Finger Ulcers, Change from Baseline, Q1 [2, 11]: −0.500, | SHAQ VAS Finger Ulcers, Change from Baseline, Q3 [2, 11]: 0.000 | SHAQ VAS Finger Ulcers, Day 12, Max [2, 11]: 1.50 | SHAQ VAS Finger Ulcers, Day 12, Min [2, 11]: 0.00, | SHAQ VAS Finger Ulcers, Day 12, Q1 [2, 11]: 0.000, | SHAQ VAS Finger Ulcers, Day 12, Q3 [2, 11]: 0.700 | SHAQ VAS Finger Ulcers, Percent Change from Baseline, Max [2, 11]: 0.0 | SHAQ VAS Finger Ulcers, Percent Change from Baseline, Min [2, 11]: −100.0, | SHAQ VAS Finger Ulcers, Percent Change from Baseline, Q1 [2, 11]: −100.00, | SHAQ VAS Finger Ulcers, Percent Change from Baseline, Q3 [2, 11]: −12.50 | SHAQ VAS Finger Ulcers, Change from Baseline, Max [2, 12]: 0.40 | SHAQ VAS Finger Ulcers, Change from Baseline, Min [2, 12]: −3.20, | SHAQ VAS Finger Ulcers, Change from Baseline, Q1 [2, 12]: −2.800, | SHAQ VAS Finger Ulcers, Change from Baseline, Q3 [2, 12]: 0.000 | SHAQ VAS Finger Ulcers, Day 12, Max [2, 12]: 5.60 | SHAQ VAS Finger Ulcers, Day 12, Median [2, 12]: 0.000 | SHAQ VAS Finger Ulcers, Day 12, Min [2, 12]: 0.00, | SHAQ VAS Finger Ulcers, Day 12, Q1 [2, 12]: 0.000, | SHAQ VAS Finger Ulcers, Day 12, Q3 [2, 12]: 1.900 | SHAQ VAS Finger Ulcers, Percent Change from Baseline, Max [2, 12]: 133.3 | SHAQ VAS Finger Ulcers, Percent Change from Baseline, Min [2, 12]: −100.0, | SHAQ VAS Finger Ulcers, Percent Change from Baseline, Q1 [2, 12]: −81.37, | SHAQ VAS Finger Ulcers, Percent Change from Baseline, Q3 [2, 12]: 50.00 | SHAQ Visual Analogue Scale - Finger Ulcers, Change from Baseline, Mean (SD) [2, 13]: −0.643 (1.2246) | SHAQ Visual Analogue Scale - Finger Ulcers, Change from Baseline, Median [2, 13]: 0.000 | SHAQ Visual Analogue Scale - Finger Ulcers, In-Clinic Visit (Day 12), Mean (SD) [2, 13]: 0.463 (0.7170) | SHAQ Visual Analogue Scale - Finger Ulcers, In-Clinic Visit (Day 12), Median [2, 13]: 0.000 | SHAQ Visual Analogue Scale - Finger Ulcers, Percent Change from Baseline, Mean (SD) [2, 13]: −17.08 (103.378) % | SHAQ Visual Analogue Scale - Finger Ulcers, Percent Change from Baseline, Median [2, 13]: −50.82% | % improvement in VAS Digital Ulcers ([2]; Pooled Cilnidipine (n = 7)): 19% | SHAQ VAS Finger Ulcers, Change from Baseline, Max ([2]; Pooled Cilnidipine, PP, Part A): 0.40 | SHAQ VAS Finger Ulcers, Change from Baseline, Min ([2]; Pooled Cilnidipine, PP, Part A): −3.20, | SHAQ VAS Finger Ulcers, Change from Baseline, Q1 ([2]; Pooled Cilnidipine, PP, Part A): −1.000, | SHAQ VAS Finger Ulcers, Change from Baseline, Q3 ([2]; Pooled Cilnidipine, PP, Part A): 0.000 | SHAQ VAS Finger Ulcers, Day 12, Max ([2]; Pooled Cilnidipine, PP, Part A): 1.90 | SHAQ VAS Finger Ulcers, Day 12, Min ([2]; Pooled Cilnidipine, PP, Part A): 0.00, | SHAQ VAS Finger Ulcers, Day 12, Q1 ([2]; Pooled Cilnidipine, PP, Part A): 0.000, | SHAQ VAS Finger Ulcers, Day 12, Q3 ([2]; Pooled Cilnidipine, PP, Part A): 0.900 | SHAQ VAS Finger Ulcers, Percent Change from Baseline, Max ([2]; Pooled Cilnidipine, PP, Part A): 133.3 | SHAQ VAS Finger Ulcers, Percent Change from Baseline, Min ([2]; Pooled Cilnidipine, PP, Part A): −100.0, | SHAQ VAS Finger Ulcers, Percent Change from Baseline, Q1 ([2]; Pooled Cilnidipine, PP, Part A): −81.37, | SHAQ VAS Finger Ulcers, Percent Change from Baseline, Q3 ([2]; Pooled Cilnidipine, PP, Part A): 47.22 | VAS Finger Ulcers Change from Baseline Max [2, 14]: 0.00 | VAS Finger Ulcers Change from Baseline Median [2, 14]: −0.350 | VAS Finger Ulcers Change from Baseline Min [2, 14]: −1.00 | VAS Finger Ulcers Change from Baseline Q1 [2, 14]: −0.850 | VAS Finger Ulcers Change from Baseline Q3 [2, 14]: 0.000 | VAS Finger Ulcers Day 12 Max [2, 14]: 1.10 | VAS Finger Ulcers Day 12 Median [2, 14]: 0.000 | VAS Finger Ulcers Day 12 Min [2, 14]: 0.00 | VAS Finger Ulcers Day 12 Q1 [2, 14]: 0.000 | VAS Finger Ulcers Day 12 Q3 [2, 14]: 0.550 | VAS Finger Ulcers Percent Change from Baseline Mean [2, 14]: −69.44% | VAS Finger Ulcers Percent Change from Baseline Median [2, 14]: −69.44% | VAS Finger Ulcers Percent Change from Baseline Min [2, 14]: −100.0% | VAS Finger Ulcers Percent Change from Baseline Q1 [2, 14]: −100.00% | VAS Finger Ulcers Change from Baseline Max [2, 15]: 0.40 | VAS Finger Ulcers Change from Baseline Mean [2, 15]: −0.933 | VAS Finger Ulcers Change from Baseline Median [2, 15]: 0.000 | VAS Finger Ulcers Change from Baseline Min [2, 15]: −3.20 | VAS Finger Ulcers Change from Baseline Q1 [2, 15]: −3.200 | VAS Finger Ulcers Change from Baseline Q3 [2, 15]: 0.400 | VAS Finger Ulcers Day 12 Max [2, 15]: 1.90 | VAS Finger Ulcers Day 12 Median [2, 15]: 0.700 | VAS Finger Ulcers Day 12 Min [2, 15]: 0.00 | VAS Finger Ulcers Day 12 Q1 [2, 15]: 0.000 | VAS Finger Ulcers Day 12 Q3 [2, 15]: 1.900 | VAS Finger Ulcers Percent Change from Baseline Max [2, 15]: 133.3% | VAS Finger Ulcers Percent Change from Baseline Mean [2, 15]: 35.29% | VAS Finger Ulcers Percent Change from Baseline Median [2, 15]: 35.29% | VAS Finger Ulcers Percent Change from Baseline Min [2, 15]: −62.7% | VAS Finger Ulcers Percent Change from Baseline Q1 [2, 15]: −62.75% | VAS Finger Ulcers Percent Change from Baseline Q3 [2, 15]: 133.33%
